{"source": "paper PMC12030497", "about": "“Plasma Protein Binding, Biostability, Metabolite Profiling, and CYP450 Phenotype of TPB15 Across Different Species: A Novel Smoothened Inhibitor for TNBC Therapy” (Pharmaceutics, 2025)", "key": {"[1]": {"test": "Plasma protein binding by ultrafiltration, mouse plasma", "format": "in vitro ADME, KM mice", "details": "KM; mouse plasma, 4 to 16 μg/mL; read-out: average plasma protein binding rates, range over concentrations", "protocol": "(§1) To prepare plasma samples of TPB15 at final concentrations of 4, 8, and 16 μg/mL, 1 μL of TPB15 dissolved in dimethyl sulfoxide (DMSO) at low (400 μg/mL), medium (800 μg/mL), and high (1600 μg/mL) concentrations was added to 99 μL of blank plasma obtained from humans, rats, mice, monkeys, and dogs. Each concentration was prepared in six replicates. The samples were then divided into two groups: one for determining the pre-ultrafiltration concentration (Cpre) and the other for measuring the post-ultrafiltration concentration (Ct), following the evaluation of the non-specific binding coefficient (NSB) of TPB15 to the ultrafiltration tubes. For Cpre determination, 10 μL of the sample was mixed with 990 μL of plasma, vortexed thoroughly, and analyzed for drug concentration using the previously reported liquid chromatography–tandem mass spectrometry (LC-MS/MS) method. For Ct determination, the samples were first incubated in a water bath at 37 °C for 3 h. After incubation, they were transferred to ultrafiltration tubes and centrifuged at 14,000 rpm for 20 min at 4 °C using a centrifuge (Sigma 3K-15) from Sigma Laborzentrifugen GmbH (Osterode am Harz, Germany). After centrifugation, 10 μL of the ultrafiltrate was mixed with 990 μL of plasma, vortexed, and analyzed for concentration using the same LC-MS/MS method. The formula for calculating the plasma protein binding rate (PPB) is as follows: PPB (%) = [1 − Ct/(1 − NSB)/Cpre] × 100%. (NSB: non-specific binding coefficient. Cpre: post-ultrafiltration concentration. Ct: pre-ultrafiltration concentration)."}, "mouse plasma protein": {"system": "mouse plasma protein", "test": "Plasma protein binding by ultrafiltration, mouse plasma", "format": "in vitro ADME, KM mice", "details": "37 °C 3 h", "protocol": "as §1"}, "[2]": {"test": "Plasma protein binding, overall across the five species", "format": "in vitro ADME, mice, rats, dogs, monkeys, humans", "details": "monkey, human, all species tested, low, medium and high concentrations (4 to 16 μg/mL), read-out: plasma protein binding rate, overall", "protocol": "as §1, with “The formula for calculating the plasma protein binding rate (PPB) is as follows: PPB (%) = [1 − Ct/(1 − NSB)/Cpre] × 100%. (NSB: non-specific binding coefficient. Cpre: post-ultrafiltration concentration. Ct: pre-ultrafiltration concentration).” left out"}, "[3]": {"test": "Metabolic stability in monkey liver microsomes (MLM)", "format": "in vitro ADME, crab-eating monkey", "protocol": "(§2) A total of 450 μL liver microsomes from mice, rat, dog, monkey, and human were spiked with 0.5 μL of TPB15 solution and pre-incubated in a water bath at 37 °C for 10 min. Following this, 50 μL of NADPH were added to initiate the reaction. The concentrations of each substance in the incubation system are detailed in Table 1. After initiating the metabolic reaction, 50 μL aliquots were removed at incubation times of 0, 5, 15, 30, 45, 60, and 90 min and transferred to 150 μL of icy methanol solution containing the internal standard to terminate the reaction. The mixtures were swirled for 2 min and then centrifuged at 14,800 rpm at 4 °C for 10 min. […] Three samples were prepared in parallel at each time point. Additionally, both a positive control group and a blank control group were established. In the positive control group, substrate testosterone was incubated with liver microsomes from mice, rat, dog, monkey, and human. The concentrations of substrate testosterone were measured at 0 and 90 min, and the changes in concentration before and after incubation were compared to confirm the activity of the liver microsomes. The blank control group included one drug-containing inactivated liver microsome sample for each species. The metabolic stability parameters, including in vitro elimination half-life (T1/2) and in vitro intrinsic clearance rate (CLint), were calculated based on this graph using the following formulas: in vitro elimination half-life (T1/2) = −0.693/k and in vitro intrinsic clearance rate (CLint) = (0.693 × incubation medium (mL))/(liver microsomes (mg) × T1/2)."}, "[4]": {"test": "Metabolic stability in human liver microsomes (HLM)", "format": "in vitro ADME", "protocol": "as §2"}, "[5]": {"test": "Metabolite identification in human liver microsomes", "format": "in vitro ADME", "details": "metabolite +16 Da, seen at 45 and 90 min, not at 0 min", "protocol": "A total of 450 μL of human liver microsomes were spiked with 0.5 μL of the substrate TPB15 and incubated in a water bath at 37 °C for 10 min. The reaction was initiated by adding 50 μL of NADPH. Following incubation, 50 μL of the reaction mixture were transferred to 150 μL of ice-cold methanol to terminate the reaction. The mixture was then centrifuged at 14,800 rpm at 4 °C for 10 min. A volume of 5 μL of the supernatant was collected for analysis using a QTRAP 4000 mass spectrometer(AB Sciex, Framingham, MA, USA), with three parallel samples prepared for each time point. The primary mass spectrometry conditions were as follows: curtain gas at 30 psi, sprayer gas (GS1) at 50 psi, drier gas (GS2) at 50 psi, ion source temperature at 550 °C, and cluster-removal voltage at 100 V. The ion source (IS) spray voltage was set to 5500 V, with a focusing potential (FP) of 200 V, an entrance potential (EP) of 10 V, an exit potential (CXP) of 15 V, and a collision energy of 86 V for TPB15. Chromatographic separation was performed using an Agilent ZORBAX Stable Bond C18 column (50 mm × 2.1 mm i.d., 3.5 μm particle size) at a column temperature of 35 °C. The injection volume was 5 μL, and the elution was carried out in gradient mode. The mobile phase consisted of two components: mobile phase A (an aqueous solution with 0.1% formic acid) and mobile phase B (methanol). […]"}, "MDA-MB-468": {"system": "MDA-MB-468", "design": "method as in PMID 32690258", "details": "MDA-MB-468, in vitro; cited from earlier work"}, "MDA-MB-468 xenograft": {"system": "MDA-MB-468 xenograft", "design": "method as in PMID 32690258", "details": "MDA-MB-468 xenograft nude mouse model, compared with positive control drug Vismodegib; cited from earlier work"}}}
{"smiles": "O=C(Nc1ccc(Cl)c(-c2nnc3c(Cl)cccn23)c1)c1ccc(Cl)nc1Cl", "note": "[TPB15]", "values": [{"measurement": "fraction unbound at 3 h", "setting": "[1]", "result": "0.176 to 0.188"}, {"measurement": "Plasma Protein Binding (%) KM Mice", "setting": "mouse plasma protein; 4 μg/mL TPB15, ultrafiltration", "result": "81.80 ± 0.10", "unit": "%"}, {"measurement": "Plasma Protein Binding (%) KM Mice", "setting": "mouse plasma protein; 8 μg/mL TPB15, ultrafiltration", "result": "81.21 ± 0.34", "unit": "%"}, {"measurement": "Plasma Protein Binding (%) KM Mice", "setting": "mouse plasma protein; 16 μg/mL TPB15, ultrafiltration", "result": "82.40 ± 0.42", "unit": "%"}, {"measurement": "fraction unbound at 3 h", "setting": "[2]; SD (rat), KM (mouse), beagle (dog)", "result": "0.176 to 0.191"}, {"measurement": "fraction unbound at 3 h", "setting": "[2]; mouse, rat, dog", "result": "0.176 to 0.185"}, {"measurement": "T1/2 (min), in vitro elimination half-life", "setting": "[3]; MLM, 5 μM TPB15, 0.5 mg/mL microsomes", "result": 88.34, "unit": "min"}, {"measurement": "remaining proportion of TPB15 in liver microsomes", "setting": "[3]; crab-eating monkey microsomes, 90 min, 5 μM TPB15, 0.5 mg/mL, NADPH 1 mM", "result": "48.0 ± 2.86", "unit": "%"}, {"measurement": "microsomal CLint at 5 μM", "setting": "[3]; monkey liver microsomes, MLM, 5 μM TPB15, 0.5 mg/mL microsomes, read-out: CLint (mL/min/mg), in vitro intrinsic clearance rate", "result": 0.0941, "unit": "mL/min/mg"}, {"measurement": "half-life at 5 μM", "setting": "[3]; monkey liver microsomes, MLM, 5 μM TPB15, 0.5 mg/mL microsomes, read-out: T1/2 (min), in vitro elimination half-life", "result": 88, "unit": "min"}, {"measurement": "remaining proportion of TPB15 in liver microsomes", "setting": "[4]; human microsomes, 90 min, 5 μM TPB15, 0.5 mg/mL, NADPH 1 mM", "result": "55.0 ± 2.81", "unit": "%"}, {"measurement": "microsomal CLint at 5 μM", "setting": "[4]; human, liver microsomes, HLM, 5 μM TPB15, 0.5 mg/mL microsomes, read-out: CLint (mL/min/mg), in vitro intrinsic clearance rate", "result": 0.0805, "unit": "mL/min/mg"}, {"measurement": "half-life at 5 μM", "setting": "[4]; human, liver microsomes, HLM, 5 μM TPB15, 0.5 mg/mL microsomes, read-out: T1/2 (min), in vitro elimination half-life", "result": 103, "unit": "min"}, {"measurement": "metabolic reaction of TPB15 in human liver microsomes", "setting": "[5]", "result": "oxidation"}, {"measurement": "inhibition of proliferation of TNBC cell line", "setting": "MDA-MB-468", "result": "significantly inhibits the proliferation"}, {"measurement": "tumor inhibitory effect", "setting": "MDA-MB-468 xenograft", "result": "robust tumor inhibitory effect, surpassing that of the positive control drug Vismodegib"}]}
